Entries after “also recorded” stand apart in the source; their conditions may differ. Ends that are not written are not given here.

The record followed here is US20110039762A1, “TARGETED ANTIMICROBIAL MOIETIES” (C3 JIAN, INC., priority 2009, published 2011).

One experiment relates to S. pneumoniae. The experiment can be described thus: Kill or inhibit growth/proliferation; morphology, biofilm and growth disruption (Tables 5, 6). The arrangement: key: A: Peptide aggregates; B: Less hyphal formation; Clumps; Diffuse clumps and small polyps; F: Diffuse growth; H: Thin; I: Growth inhibition; Microcolony formation; Rippled; Small polyps; Thick; W: Halo formation on top, microlonies on bottom. It counts as cell-based, Streptococcus pneumoniae.

Experiment [1] deals with MRSA. The experiment can be described thus: MIC (broth microdilution). The format is cell-based, Methicillin-resistant Staphylococcus aureus. Here is the method:
(§1) Typically, the in vitro antimicrobial activity of antimicrobial agents is tested using standard NCCLS bacterial inhibition assays, or MIC tests (see, National Committee on Clinical Laboratory Standards “Performance Standards for Antimicrobial Susceptibility Testing,” NCCLS Document M100-S5 Vol. 14, No. 16, December 1994; “Methods for dilution antimicrobial susceptibility test for bacteria that grow aerobically-Third Edition,” Approved Standard M7-A3, National Committee for Clinical Standards, Villanova, Pa.).
(§2) Briefly, ˜1×10^5 cfu/mL bacteria were diluted in TH (S. mutans), or Mueller-Hinton (MH) broth (all other organisms) and distributed to 96-well plates. Serially-diluted (2-fold) peptides were then added and the plates incubated at 37° C. for 18-24 h. […] All experiments were conducted 10 times.
Background: In broth dilution the organism is exposed to a series of concentrations in liquid medium.

For the next experiment, the system named is microorganisms. The experiment can be described thus: Peptides having multiple activities (targeting/binding, antimicrobial, growth or phenotype altering). An excerpt:
In certain embodiments, peptides described herein can have multiple activities. Thus for example, a peptide can have both binding/targeting activity and antimicrobial activity. Such peptides can be used, e.g., in a chimeric construct, for any or all of these properties. Thus, for example, a peptide designated “B” in Table 8 can be used as a targeting peptide. If it is also designated G or M it can also be used for antimicrobial activity.

The subject of experiment [2] is S. mutans. Nature of the experiment: Kill or inhibit growth/proliferation; morphology, biofilm and growth disruption (Tables 5, 6). It counts as cell-based, Streptococcus mutans. Also on record: key: A: Peptide aggregates; B: Less hyphal formation; Clumps; Diffuse clumps and small polyps; F: Diffuse growth; H: Thin; I: Growth inhibition; Microcolony formation; Rippled; Small polyps; Thick; W: Halo formation on top, microlonies on bottom.

Experiment [3] concerns S. epidermidis. The description is as above. The format is cell-based, Staphylococcus epidermidis. The arrangement: key: A: Peptide aggregates; B: Less hyphal formation; Clumps; Diffuse clumps and small polyps; F: Diffuse growth; H: Thin; I: Growth inhibition; Microcolony formation; Rippled; Small polyps; Thick; W: Halo formation on top, microlonies on bottom.
The subject of experiment [4] is S. epidermidis. The format is cell-based, Staphylococcus epidermidis. The following applies: S. epidermidis. Here is the method: as §1, §2
Experiment [5] has as its system MRSA. The experiment can be described thus: Kill or inhibit growth/proliferation; morphology, biofilm and growth disruption (Tables 5, 6). It counts as cell-based, Methicillin-resistant Staphylococcus aureus. Also on record: key: A: Peptide aggregates; B: Less hyphal formation; Clumps; Diffuse clumps and small polyps; F: Diffuse growth; H: Thin; I: Growth inhibition; Microcolony formation; Rippled; Small polyps; Thick; W: Halo formation on top, microlonies on bottom.

Experiment [6] deals with microorganisms (e.g., bacteria, yeasts, fungi). Nature of the experiment: Targeting peptide binding to target microorganisms (Table 3). Particulars: preferably 1x PBS; for Target(s) (microorganisms bound by the targeting peptide): peptide binding in aqueous buffers varied by peptide solubility; for Target(s): microorganism(s) the targeting peptide binds, peptide binding conducted in aqueous buffers varied by peptide solubility.

The subject of another experiment is P. gingivalis. Nature of the experiment: Kill or inhibit growth/proliferation; morphology, biofilm and growth disruption (Tables 5, 6). It counts as cell-based, Porphyromonas gingivalis. Also on record: key: A: Peptide aggregates; B: Less hyphal formation; Clumps; Diffuse clumps and small polyps; F: Diffuse growth; H: Thin; I: Growth inhibition; Microcolony formation; Rippled; Small polyps; Thick; W: Halo formation on top, microlonies on bottom.

The subject of a further experiment is F. nucleatum. The description is as above. The arrangement: key: A: Peptide aggregates; B: Less hyphal formation; Clumps; Diffuse clumps and small polyps; F: Diffuse growth; H: Thin; I: Growth inhibition; Microcolony formation; Rippled; Small polyps; Thick; W: Halo formation on top, microlonies on bottom. The format is cell-based, Fusobacterium nucleatum.
In experiment [7] the test system is B. subtilis. Nature of the experiment: MIC (broth microdilution). It counts as cell-based, Bacillus subtilis. As for the experimental part:
as §1, §2

Experiment [8] deals with B. subtilis. The experiment can be described thus: Kill or inhibit growth/proliferation; morphology, biofilm and growth disruption (Tables 5, 6). The format is cell-based, Bacillus subtilis. Also on record: key: A: Peptide aggregates; B: Less hyphal formation; Clumps; Diffuse clumps and small polyps; F: Diffuse growth; H: Thin; I: Growth inhibition; Microcolony formation; Rippled; Small polyps; Thick; W: Halo formation on top, microlonies on bottom.

A further experiment concerns C. jeikeium. The experiment is described as above. The format is cell-based, Corynebacterium jeikeium. The arrangement: key: A: Peptide aggregates; B: Less hyphal formation; Clumps; Diffuse clumps and small polyps; F: Diffuse growth; H: Thin; I: Growth inhibition; Microcolony formation; Rippled; Small polyps; Thick; W: Halo formation on top, microlonies on bottom.
In another experiment the test system is A. niger. Nature of the experiment: MIC (broth microdilution). The format is cell-based, Aspergillus niger. Here is the method:
as §1, §2

Another experiment relates to C. albicans. The experiment can be described thus: Kill or inhibit growth/proliferation; morphology, biofilm and growth disruption (Tables 5, 6). The format is cell-based, Candida albicans. The arrangement: key: A: Peptide aggregates; B: Less hyphal formation; Clumps; Diffuse clumps and small polyps; F: Diffuse growth; H: Thin; I: Growth inhibition; Microcolony formation; Rippled; Small polyps; Thick; W: Halo formation on top, microlonies on bottom.

For a further experiment, the system named is E. faecalis. Described as above. The format is cell-based, Enterococcus faecalis. Also on record: key: A: Peptide aggregates; B: Less hyphal formation; Clumps; Diffuse clumps and small polyps; F: Diffuse growth; H: Thin; I: Growth inhibition; Microcolony formation; Rippled; Small polyps; Thick; W: Halo formation on top, microlonies on bottom.
Experiment [9] relates to S. mutans. It counts as cell-based, Streptococcus mutans. Particulars: S. mutans. Here is the method:
as §1, §2

Another experiment concerns T. rubrum. The experiment can be described thus: MIC (broth microdilution). The format is cell-based, Trichophyton rubrum. Here is the method:
as §1, §2

Turning to KFQGEFTNIGQSYIVSASHMSTSLNTGK [PF-583], the “Organism, effect” value with S. pneumoniae is on record as “S. pneumoniae (D)”; in the experiment on S. mutans [2], “S. mutans (F)”; in the experiment with S. epidermidis [3] it was “S. epidermidis (I)”; in the experiment with MRSA [5], “MRSA (I)”. For the same substance, the MIC entry is listed as “MRSA , 50 μM” with MRSA [1] and “S. epidermidis, 50 μM” in the experiment on S. epidermidis [4]. In addition, the Activities result in the experiment on microorganisms is “G B M”.
Consider “NTNDLLQAFELMGLGMAGVFIVLGILYIVAELLIKIFPVNN [PF-C194]”, for which the “Target(s) (microorganisms bound by the targeting peptide)” value in experiment [6] is given as “A. naeslundii; also recorded: F. nucleatum; also recorded: P. gingivalis; also recorded: S. mutans; also recorded: T. denticola”. Further, the Activities result with microorganisms is “G B”. The “Organism, effect (morphology, biofilm and growth disruption)” value with P. gingivalis is on record as “P. gingivalis (T)”; with S. mutans [2] it was “S. mutans (F)”; in the experiment on F. nucleatum, “F. nucleatum (T)”.
As for “PF-C052: peptide having multiple activities (SRFRNGV; Peptide with targeting and/or antimicrobial activity)”, in experiment [6], the “Target(s) (microorganisms bound by the targeting peptide)” value is reported as “A. naeslundii; also recorded: F. nucleatum; also recorded: S. mutans”. Also, in the experiment on microorganisms, the Activities entry is on record as “G B”. The “Organism, effect (morphology, biofilm and growth disruption)” value with P. gingivalis was “P. gingivalis (H)”.
In the case of “PF-C075: peptide having multiple activities (KALVISVFAIVFSIIFVKFFYWRDKK; Peptide with targeting and/or antimicrobial activity)”, the “Target(s) (microorganisms bound by the targeting peptide)” value in experiment [6] is given as “A. naeslundii; also recorded: F. nucleatum; also recorded: P. gingivalis; also recorded: S. mutans; also recorded: T. denticola”. Besides, the Activities result with microorganisms is “G B”. For the same substance, the “Organism, effect (morphology, biofilm and growth disruption)” value in the experiment with P. gingivalis was “P. gingivalis (R)”; in the experiment on S. mutans [2], “S. mutans (F)”; in the experiment on F. nucleatum it was “F. nucleatum (T)”.
As for “PF-C084: peptide having multiple activities (FFSVIFLFGLNYLICNSPLFNILR; Peptide with targeting and/or antimicrobial activity)”, in experiment [6], the “Target(s) (microorganisms bound by the targeting peptide)” value is listed as “A. naeslundii; also recorded: F. nucleatum; also recorded: P. gingivalis; also recorded: S. mutans”. For the same substance, the Activities entry with microorganisms is “G B”. Also, the “Organism, effect (morphology, biofilm and growth disruption)” value in the experiment with P. gingivalis is listed as “P. gingivalis (R)”; in the experiment with S. mutans [2] it was “S. mutans (F)”; in the experiment with F. nucleatum, “F. nucleatum (T)”.
On the same counts, the results for “PF-C088: peptide having multiple activities (DIANNILNSVSERLIIA; Peptide with targeting and/or antimicrobial activity)” are “A. naeslundii; also recorded: F. nucleatum; also recorded: P. gingivalis; also recorded: S. mutans; also recorded: T. denticola”, “G B”, “P. gingivalis (R)”, “S. mutans (I)” and “F. nucleatum (H)”.
With “PF-C089 (MPKRHYYKLEAKALQFGLPFAYSPIQLLK; Peptide with targeting and/or antimicrobial activity)”, the “Organism, effect (morphology, biofilm and growth disruption)” value in the experiment on P. gingivalis was “P. gingivalis (R)”.
“PF-C136: peptide having multiple activities (LILSYQASVYPLFAYLCQQKDY; Peptide with targeting and/or antimicrobial activity)”: the “Target(s) (microorganisms bound by the targeting peptide)” value in experiment [6] is on record as “A. naeslundii; also recorded: F. nucleatum; also recorded: P. gingivalis; also recorded: S. mutans; also recorded: T. denticola”. Further, in the experiment on microorganisms, the Activities entry is recorded as “G B”. The “Organism, effect (morphology, biofilm and growth disruption)” value is recorded as “P. gingivalis (R)” in the experiment on P. gingivalis and “F. nucleatum (C)” in the experiment on F. nucleatum.
Take “PF-C180: peptide having multiple activities (TVEELDKAFTWGAAAALAIGVIAINVGLAAGYCYNNNDVF; Peptide with targeting and/or antimicrobial activity)”: the “Target(s) (microorganisms bound by the targeting peptide)” value in experiment [6] is on record as “F. nucleatum; also recorded: P. gingivalis; also recorded: S. mutans; also recorded: T. denticola”. The Activities entry with microorganisms is given as “G B”. For the same substance, the “Organism, effect (morphology, biofilm and growth disruption)” value is recorded as “P. gingivalis (R)” in the experiment with P. gingivalis and “S. mutans (S)” in the experiment on S. mutans [2].
Consider “PF-C293 (IIIILPKIYLVCKTV; Peptide with targeting and/or antimicrobial activity)”, for which the “Organism, effect (morphology, biofilm and growth disruption)” value is reported as “P. gingivalis (R)” with P. gingivalis, “S. mutans (F)” with S. mutans [2] and “F. nucleatum (T)” with F. nucleatum.
Consider RESKLIAMADMIRRRI-NH2 [PF-545], for which the “Target(s)” value in experiment [6] is on record as “S. epidermidis; also recorded: E. coli; also recorded: P. aeruginosa; also recorded: S. pneumoniae; also recorded: E. faecalis; also recorded: C. jeikeium”. The MIC entry is recorded as “B. subtilis, 25 μM” against B. subtilis [7]; “MRSA , 50 μM” against MRSA [1]; “A. niger, 50 μM” in the experiment on A. niger. Also, in the experiment with microorganisms, the Activities result is given as “G B M”. Besides, the “Organism, effect” value is “B. subtilis (I)” in the experiment with B. subtilis [8], “C. jeikeium (H)” in the experiment with C. jeikeium, “C. albicans (B)” in the experiment on C. albicans and “E. faecalis (H)” in the experiment on E. faecalis.
Turning to WSRVPGHSDTGWKVWHRW-NH2 [PF-547], the “Target(s)” value in [6] was “S. epidermidis and E. coli and P. aeruginosa and C. albicans and MRSA and S. pneumoniae and E. faecalis”. Besides, the MIC result against B. subtilis [7] was “B. subtilis, 25 μM”; in the experiment with S. mutans [9], “S. mutans, 12.5 μM”; in the experiment on T. rubrum, “T. rubrum, 25 μM”. Also, the Activities entry in the experiment on microorganisms is “G B M”. Further, the “Organism, effect” value was “B. subtilis (I)” with B. subtilis [8], “E. faecalis (R)” in the experiment with E. faecalis, “S. epidermidis (R)” in the experiment on S. epidermidis [3] and “MRSA (M)” with MRSA [5].
